Reference: publication PMC4585737, “Lipoproteins/peptides are sepsis-inducing toxins from bacteria that can be neutralized by synthetic anti-endotoxin peptides” (Scientific Reports, 2015)
“Also recorded” adds a separate entry of the source. Where no end group is shown, it is not given here. [ ]: non-standard residue; d: D form.

How the values were obtained:
human mononuclear cells = test: TNFα production in human mononuclear cells (MNC) stimulated by LP, LTA or PGN, and its inhibition by SALP; assay type: cell-based; conditions: for stimulation of MNC (TNFα induction) compared with LPS / TNFα when adding 100 ng/ml of LP / concentration necessary to induce an observable TNFα secretion: human MNC; for stimulation of MNC (TNFα induction) compared with LPS: 4 h, ELISA
Protocol: The stimulation of MNC was performed as described previously. Briefly, MNC were isolated from heparinized blood of healthy donors by the Hypaque-Ficoll density gradient method. The cell number was equilibrated at 5 × 10^6 cells/ml RPMI 1640 containing 2 mM L-glutamine, 100 U/ml penicillin and 100 μg/ml streptomycin. For stimulation, 200 μl/well MNC were transferred into 96-well culture plates. The stimuli were serially diluted in RPMI 1640 and added to the cultures at 20 μl per well. The cultures were incubated for 4 h at 37 °C under 5% CO2. Cell-free supernatants were collected after centrifugation of the culture plates for 10 min at 400 × g and stored at −20 °C until the determination of the cytokine content. Immunological determination of TNFα in the cell supernatant was performed in a sandwich-ELISA as described earlier (OptEIA; BD, Heidelberg, Germany). TNFα was determined and measured following manufacturer’s instructions and results are the average of two assays.
LP preparations were pre-warmed for 30 min at 37 °C, and added to the cultures at 20 μl per well. In inhibition experiments, different SALP were added directly after LPS/LP/LTA administration.
Since the data of the stimulation of human MNC by the bacterial and synthetic LP was taken over a time period of more than 6 years, the TNFα production lead to considerable variations due to different batches of LP and of Pep19-2.5, and in particular due to variations resulting from blood samples of different donors. Because the main emphasis laid here is the efficiency of the peptide to inhibit the cytokine production, most figures describe the inhibition efficieny of the peptide in %, by presenting the means ± SEM of at least 3 independent experiments. The absolute values of the cytokine production, where of note, is given separately in the text.

human MNCs = conditions: cited from earlier work
Excerpt: In this section, we first present in vitro data on the production of pro-inflammatory cytokines by human cells in response to LP or LTA from different origin and its neutralization by SALP. Then, we used a mouse model of acute toxemia to characterize the in vivo expression of those cytokines and to study if SALP can protect animals against lethal LP-induced sepsis.

[1] = active LP adopt non-lamellar aggregates, inactive a lamellar aggregate structure; cited from earlier work
Excerpt: Similar arguments regarding the bioactive conical conformation of ...

guinea pigs = conditions: ref Greis et al. 40; cited from earlier work
Excerpt: (§1) Whereas for Gram-negative species the major inflammation- and sepsis-inducing compounds are endotoxins, the responsible compounds for endotoxin-free organisms (Gram-positive bacteria, fungi, mycoplasma, some Gram-negative bacteria) are poorly described or unknown. From the present data, however, it appears to be that LP are the decisive compounds for inflammation- a ...

rats = conditions: ref Hübschle et al. 39; cited from earlier work
Excerpt: as §1

Balb/C mice [2] = test: Lethal toxemia in galactosamine-sensitized mice; assay type: in vivo, mouse; conditions: for physical activity / survival score of each animal: n = 3, one score per animal
Protocol: (§2) Seven-week-old female SPF-free Balb/C mice of 20 g of body weight, approximately, were purchased from Harlan Spain (Harlan Interfauna Iberica S.A., Barcelona, Spain) and randomly distributed in experimental groups (at least 4 animals per group except for the determination of lethal dose (n = 3)). Sample size was calculated based on previous results with the same animal model. Animals were housed in individually ventilated cages (5 mice per cage) bedded with hardwood bedding. Mice were provided ad libitum access to feed and water and lighting was adjusted to a 14-hour light/10-hour dark cycle. During the experiments, the condition of the animals was monitored daily every 4 hours and animals displaying persistent motor ataxia and hunched posture were euthanized.
To determine the lethal dose of FSL-1 in mice, the method of Galanos and collaborators[48] was followed with some modifications. Briefly, animals were intraperitoneally inoculated with increasing amounts of FSL-1 (50 ng, 500 ng, 5 μg and 50 μg) supplemented with 18 mg of D-galactosamine in a final volume of 200 μl of pyrogen-free saline. Galactosamine is known to sensitize mice to pro-inflammatory compounds such as LPS, thus making it possible to use lower amounts of the stimulatory drug[46]. The ability of Aspidasept® to protect mice from FSL-1 dependent lethal toxemia was assessed by co-administering FSL-1 (4 μg/mouse) with D-galactosamine (18 mg/mouse) intraperitoneally.
Results were globally analyzed by means of a Kaplan-Meier survival analysis (SPSS 15.0). When the survival plots were parallel, the data were compared by the log-rank test, whereas the Breslow-Gehan-Wilcoxon test was applied when the plots intersected.

Balb/C mice [3] = test: Serum cytokine response in mice after intraperitoneal inoculation; assay type: in vivo, mouse; conditions: 40 μg FSL-1 i.p.
Protocol: as §2
To study if FSL-1 had pro-inflammatory cytokine-inducing activity, animals were intraperitoneally inoculated with 40 μg of FSL-1 resuspended in 200 μl of pyrogen-free saline. Blood samples were taken both at 1.5 h or 4 h after FSL-1 challenge to measure TNFα and IL-6 levels. For this purpose, mice were anesthetised, a blood sample was obtained by the retroorbital plexus and serum cytokine levels were measured using Quantikine Immunoassays kits (R&D systems, Minneapolis, USA) following manufacturer’s instructions. Differences between groups were statistically analyzed using the Mann-Whitney U test.
To evaluate the ability of Aspidasept® to neutralize the FSL-1 induced pro-inflammatory cytokines, a group of animals received by the intraperitoneal route first 40 μg of FSL-1 and then 400 μg of the drug resuspended in 100 μl of pyrogen-free saline. This second injection was administered immediately after FSL-1 challenge at a different site of the peritoneum. TNFα and IL-6 levels were measured (see above) at 1.5 h or 4 h after challenge, respectively, coinciding with the peak of cytokine secretion, as determined in preliminary experiments.

TLR4 = test: IL-8 production in HEK cells transfected with a TLR4 expression vector; assay type: cell-based; conditions: for IL-8 in TLR4-transfected cells: HEK cells, ELISA
human TLR2 = test: IL-8 production in HEK293 cells transfected with TLR2; assay type: cell-based; conditions: HEK293, 18 hours stimulation, relatively high LP concentrations; ELISA
Protocol: For HEK cell activation, human IL-8 was determined by sandwich enzyme-linked immunosorbent assay using IL-8 cytoset from BIOSOURCE (Life Technologies GmbH, Darmstadt Germany) exactly according to the manufacturer’s protocol. For transient transfection, HEK293 cells were plated at a density of 2.5 × 10^4/well in 96-well plates in Dulbecco’s modified Eagle’s medium (PAA, Pasching, Germany). The following day, cells were transfected using Lipofectamine (Life technologies) according to the manufacturer’s protocol. Expression plasmid containing the FLAG-tagged version of human TLR2 was a kind gift from P. Nelson, Seattle, WA and subcloned into pREP9 (Life Technologies). TLR2 plasmid was used at 100 ng/transfection. After 24 hours of transfection, cells were washed and stimulated for 18 hours with indicated compounds and positive controls. Finally, supernatants were collected and the interleukin-8 content was quantified using a commercial ELISA (Life technologies).
Data shown are the mean ± S.D. of triplicate samples of one experiment and representative of two independent experiments.

macrophages = conditions: LP 19 KDa from M. tuberculosis; cited from earlier work
Excerpt: When adding the polycationic polymyxin B (PMB), a traditional AMP[43] to the shortened 19 KDa LP, a similar lack of interaction was observed.

[4] = target: T1, FSL-1 (fibroblast-stimulating lipopeptide) (Mycoplasma salivarium); test: ITC; lipopeptide 0.05 mM dispersion in the cell (1.5 ml); peptide 1 mM titrated in 3 μl aliquots every 5 min; 37 °C; MCS calorimeter; conditions: both partners purified
T1 construct: the first C stands for the lipidated cysteine; Shortened analogue of the 44-kDa lipoprotein LP44 of Mycoplasma salivarium, its N-terminal part; stood in the assays as an aggregate dispersion of the lipopeptide; also called LP FSL-1; source: synthetic lipopeptide, EMC microcollections GmbH (Tübingen)
T1 peptide: [Pam2Cys]GDPKHPKSF

GCRRFKKFKKWRYRGRFWFWCFG [Pep19–12]
inhibition of Pam3CSK4-induced cytokine (TNFα) production (human mononuclear cells; stimulus Pam3CSK4 1000, 100, 10 ng/ml, [LP]:[Pep] up to 1:100 weight%): no or only a small inhibition

GKKYRRFRWKFKGKWFWFG [Pep19–4, synthetic anti-LPS peptide (SALP)]
inhibition efficiency in the biological experiments (human MNCs): moderate

GRRYKKFRWKFKGRWFWFG [Pep19–8, synthetic anti-LPS peptide (SALP)]
inhibition efficiency in the biological experiments (human MNCs): low

Pam2CSK4
biological activity [1]: biologically active

Pam2Cys-GDPKHPKSF [FSL-1, fibroblast-stimulating lipopeptide, synthetic diacyl LP, shortened analogue of the 44-kDa LP LP44 of Mycoplasma salivarium]
stimulation of MNC (TNFα induction) compared with LPS (human mononuclear cells): potency similar to that of LPS; also recorded: similarly active | in vivo biological activity (guinea pigs): High | in vivo biological activity (rats): High | physical activity / survival score of each animal (Balb/C mice [2]; 500 ng FSL-1 i.p. + D-galactosamine 18 mg/mouse, 24 hours): † † † | physical activity / survival score of each animal (Balb/C mice [2]; 500 ng FSL-1 i.p. + D-galactosamine 18 mg/mouse, 48 hours): † † † | time to symptoms of sepsis (reduced motor activity, lethargy, shivering, piloerection) (Balb/C mice [2]; 4 μg FSL-1 i.p. + D-galactosamine 18 mg/mouse): ≤ 120 min | physical activity / survival score of each animal (Balb/C mice [2]; 5 μg FSL-1 i.p. + D-galactosamine 18 mg/mouse, 24 hours): † † † | physical activity / survival score of each animal (Balb/C mice [2]; 5 μg FSL-1 i.p. + D-galactosamine 18 mg/mouse, 48 hours): † † † | physical activity / survival score of each animal (Balb/C mice [2]; 50 μg FSL-1 i.p. + D-galactosamine 18 mg/mouse, 24 hours): † † † | physical activity / survival score of each animal (Balb/C mice [2]; 50 μg FSL-1 i.p. + D-galactosamine 18 mg/mouse, 48 hours): † † † | amount necessary to kill 100% of the animals in 48 h (LD100) (Balb/C mice [2]; galactosamine-sensitized Balb/C mice, i.p., n = 3 per dose): 500 ng/mouse | LD100 relative to the equivalent LD100 of Salmonella minnesota LPS (Balb/C mice [2]; identical experimental conditions, LPS value from ref 24): 10 times higher | time of peak serum IL-6 level (Balb/C mice [3]; data not shown): 4 h | time of peak serum TNFα level (Balb/C mice [3]; data not shown): 90 min | serum TNFα response (Balb/C mice [3]; n = 4, 1.5 h): potent | serum IL-6 response (Balb/C mice [3]; n = 4, 4 h): potent

Pam2Cys-GNNDESNISFKEK [MALP-2, reference compound]
stimulation of MNC (TNFα induction) compared with LPS (human mononuclear cells): similarly active

Pam3Cys-KQNVSSLDEKNSVSV [LP OspA, synthetic triacyl LP, shortened analogue of OspA from Borrelia burgdorferi]
IL-8 in TLR4-transfected cells (TLR4): nearly no IL-8 signal | IL-8 secreting activity in TLR-2 transfected cells (human TLR2): considerable IL-8 secreting activity

Pam3Cys-NNSGKDGNTSANSAD [LP OspC, synthetic triacyl LP, shortened analogue of OspC from Borrelia burgdorferi]
IL-8 in TLR4-transfected cells (TLR4): nearly no IL-8 signal | IL-8 secreting activity in TLR-2 transfected cells (human TLR2): considerable IL-8 secreting activity

Pam3Cys-SKKKK [Pam3CSK4, reference compound]
IL-8 secreting activity in TLR-2 transfected cells (human TLR2): considerable IL-8 secreting activity | activation of MNC at 1 ng/ml (human mononuclear cells; 1 ng/ml, data not shown): not | activation of MNC at 10 ng/ml (human mononuclear cells; 10 ng/ml, data not shown): some activation takes place | stimulation of MNC (TNFα induction) compared with LPS (human mononuclear cells): markedly lower level than LPS | biological activity [1]: biologically active

Pam3Cys-SQEPAAPAAEATPAG [LP H8, synthetic triacyl LP, shortened analogue of LP blp NG from Neisseria gonorrhoeae]
IL-8 in TLR4-transfected cells (TLR4): nearly no IL-8 signal | IL-8 secreting activity in TLR-2 transfected cells (human TLR2): considerable IL-8 secreting activity | TNFα when adding 100 ng/ml of LP (human mononuclear cells; data not shown): no detectable amounts | concentration necessary to induce an observable TNFα secretion (human mononuclear cells; data not shown): 10 µg/mL

Pam3Cys-SSSNNDAAGNGAAQT [LP P6, synthetic triacyl LP, shortened analogue of protein P6 from Haemophilus influenzae]
IL-8 in TLR4-transfected cells at high concentration (TLR4; 10 μg/ml): significant amounts of IL-8 | IL-8 secreting activity in TLR-2 transfected cells (human TLR2): considerable IL-8 secreting activity | TNFα when adding 100 ng/ml of LP (human mononuclear cells; data not shown): no detectable amounts | concentration necessary to induce an observable TNFα secretion (human mononuclear cells; data not shown): 10 µg/mL

polymyxin B
inhibition of the stimulation of macrophages by the shortened 19 KDa LP (macrophages): lack of biological inhibition

B1: Pep19-2.5 (Aspidasept^®) (peptide)
peptide: GCKKYRRFRWKFKGKFWFWG-NH2
notes: designed synthetic anti-LPS peptide, 20-mer; purity >95% (HPLC, MALDI-TOF); also called SALP; synthetic anti-LPS peptide; source: synthetic peptide; batches produced by BACHEM (Bubendorf, Switzerland)
binding result [4]: binds
